Patent US11078216B2, “Bisaryl amides as NRF2 activators” (GLAXOSMITHKLINE INTELLECTUAL PROPERTY DEVELOPMENT LIMITED, priority 2016, dated 2021)

Tested on: NRF2 (NQO1 activity as marker for NRF2 activation), BEAS-2B cells
Assay: BEAS-2B NQO1 MTT Assay
Format: cell-based
Conditions: Homo sapiens, EC50 of NQO1 specific activity induction, 48 hours incubation, read-out: EC50
Outline: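 BEAS-2B cells were exposed to compound for 48 h at 37° C, 5% CO2, then lysed. NQO1 activity was measured kinetically by MTT reduction at 570 nm over 30 minutes; EC50 came from 3-parameter fit of Delta OD/min versus log concentration.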

Compound | EC50
CC[C@@H]1CN(Cc2cc([C@@H](c3ccc4c(nnn4C)c3C)C(C)(C)C(=O)Nc3cccnc3)ccc2Cl)S(=O)(=O)c2ccccc2O1 [Example 84, (S)-3-(4-Chloro-3-(((R)-4-ethyl-1,1-dioxido-3,4-dihydro-2H-benzo[b][1,4,5]oxathiazepin-2-yl)methyl)phenyl)-3-(1,4-dimethyl-1H-benzo[d][1,2,3]triazol-5-yl)-2,2-dimethyl-N-(pyridin-3-yl)propanamide] | 10 to 100 nM
CCCn1nnc2c(C)c([C@H](c3ccc(C)c(CN4C[C@@H](CC)Oc5ccccc5S4(=O)=O)c3)C(C)(C)C(=O)Nc3cccnc3)ccc21 [Example 85, (S)-3-(3-(((R)-4-Ethyl-1,1-dioxido-3,4-dihydro-2H-benzo[b][1,4,5]oxathiazepin-2-yl)methyl)-4-methylphenyl)-2,2-dimethyl-3-(4-methyl-1-propyl-1H-benzo[d][1,2,3]triazol-5-yl)-N-(pyridin-3-yl)propanamide] | 10 to 100 nM
CC[C@@H]1CN(Cc2cc([C@@H](c3ccc4c(nnn4CC)c3C)C(C)(C)C(=O)Nc3cnc(Cl)nc3)ccc2C)S(=O)(=O)c2cccnc2O1 [Example 86, (S)—N-(2-Chloropyrimidin-5-yl)-3-(3-(((R)-4-ethyl-1,1-dioxido-3,4-dihydro-2H-pyrido[2,3-b][1,4,5]oxathiazepin-2-yl)methyl)-4-methylphenyl)-3-(1-ethyl-4-methyl-1H-benzo[d][1,2,3]triazol-5-yl)-2,2-dimethylpropanamide] | 1 to 10 nM
CC[C@@H]1CN(Cc2cc([C@@H](c3ccc4c(nnn4CC)c3C)C(C)(C)C(N)=O)ccc2C)S(=O)(=O)c2ccccc2O1 [Example 87, (S)-3-(3-(((R)-4-Ethyl-1,1-dioxido-3,4-dihydro-2H-benzo[b][1,4,5]oxathiazepin-2-yl)methyl)-4-methylphenyl)-3-(1-ethyl-4-methyl-1H-benzo[d][1,2,3]triazol-5-yl)-2,2-dimethylpropanamide] | 1 to 10 nM
CC[C@H]1Cc2ccc(C(F)(F)F)cc2S(=O)(=O)N(Cc2cc([C@@H](c3ccc4c(nnn4CC)c3C)C(C)(C)C(N)=O)ccc2C)C1 [Example 88, (S)-3-(3-(((S)-4-ethyl-1,1-dioxido-8-(trifluoromethyl)-4,5-dihydrobenzo[f][1,2]thiazepin-2(3H)-yl)methyl)-4-methylphenyl)-3-(1-ethyl-4-methyl-1H-benzo[d][1,2,3]triazol-5-yl)-2,2-dimethylpropanamide] | 1 to 10 nM
CC[C@@H]1CN(Cc2cc([C@@H](c3ccc4c(nnn4C)c3C)C(C)(C)C(N)=O)ccc2Cl)S(=O)(=O)c2ccccc2O1 [Example 89, (S)-3-(4-chloro-3-(((R)-4-ethyl-1,1-dioxido-3,4-dihydro-2H-benzo[b][1,4,5]oxathiazepin-2-yl)methyl)phenyl)-3-(1,4-dimethyl-1H-benzo[d][1,2,3]triazol-5-yl)-2,2-dimethylpropanamide] | 10 to 100 nM
CC[C@H]1Cc2ccc(C(F)(F)F)cc2S(=O)(=O)N(Cc2cc([C@@H](OCc3cn(CC)nn3)C(C)(C)C(N)=O)ccc2C)C1 [Example 90, (R)-3-(3-(((S)-4-ethyl-1,1-dioxido-8-(trifluoromethyl)-4,5-dihydrobenzo[f][1,2]thiazepin-2(3H)-yl)methyl)-4-methylphenyl)-3-((1-ethyl-1H-1,2,3-triazol-4-yl)methoxy)-2,2-dimethylpropanamide] | 100 to 1000 nM
CC[C@@H]1CN(Cc2cc([C@@H](c3ccc4c(nnn4CC)c3C)C(C)(C)C(=O)Nc3cncnc3)ccc2C)S(=O)(=O)c2ccccc2O1 [Example 91, (S)-3-(3-(((R)-4-Ethyl-1,1-dioxido-3,4-dihydro-2H-benzo[b][1,4,5]oxathiazepin-2-yl)methyl)-4-methylphenyl)-3-(1-ethyl-4-methyl-1H-benzo[d][1,2,3]triazol-5-yl)-2,2-dimethyl-N-(pyrimidin-5-yl)propanamide] | 1 to 10 nM
CC[C@H]1Cc2ccc(C(F)(F)F)cc2S(=O)(=O)N(Cc2cc([C@@H](c3ccc4c(nnn4CC)c3C)C(C)(C)C(=O)Nc3cncnc3)ccc2C)C1 [Example 92, (S)-3-(3-(((S)-4-Ethyl-1,1-dioxido-8-(trifluoromethyl)-4,5-dihydrobenzo[f][1,2]thiazepin-2(3H)-yl)methyl)-4-methylphenyl)-3-(1-ethyl-4-methyl-1H-benzo[d][1,2,3]triazol-5-yl)-2,2-dimethyl-N-(pyrimidin-5-yl)propanamide] | 1 to 10 nM
CC[C@H]1Cc2ccccc2S(=O)(=O)N(Cc2cc([C@@H](c3ccc4c(nnn4CC)c3C)C(C)(C)C(=O)Nc3cncnc3)ccc2C)C1 [Example 93, (S)-3-(3-(((S)-4-Ethyl-1,1-dioxido-4,5-dihydrobenzo[f][1,2]thiazepin-2(3H)-yl)methyl)-4-methylphenyl)-3-(1-ethyl-4-methyl-1H-benzo[d][1,2,3]triazol-5-yl)-2,2-dimethyl-N-(pyrimidin-5-yl)propanamide] | 1 to 10 nM
CCn1nnc2c(C)c([C@H](c3ccc(C)c(CN4C[C@@H](C)Cc5cc(C(F)(F)F)ccc5S4(=O)=O)c3)C(C)(C)C(=O)Nc3cncnc3)ccc21 [Example 94, (S)-3-(1-Ethyl-4-methyl-1H-benzo[d][1,2,3]triazol-5-yl)-2,2-dimethyl-3-(4-methyl-3-(((S)-4-methyl-1,1-dioxido-7-(trifluoromethyl)-4,5-dihydrobenzo[f][1,2]thiazepin-2(3H)-yl)methyl)phenyl)-N-(pyrimidin-5-yl)propanamide] | 1 to 10 nM
CC[C@H]1Cc2ncccc2S(=O)(=O)N(Cc2cc([C@@H](c3ccc4c(nnn4CC)c3C)C(C)(C)C(=O)Nc3cncnc3)ccc2C)C1 [Example 95, (S)-3-(3-(((S)-4-Ethyl-1,1-dioxido-4,5-dihydropyrido[2,3-f][1,2]thiazepin-2(3H)-yl)methyl)-4-methylphenyl)-3-(1-ethyl-4-methyl-1H-benzo[d][1,2,3]triazol-5-yl)-2,2-dimethyl-N-(pyrimidin-5-yl)propanamide] | 1 to 10 nM
CC[C@@H]1CN(Cc2cc([C@@H](c3ccc4c(nnn4CC)c3C)C(C)(C)C(=O)Nc3cncnc3)ccc2C)S(=O)(=O)c2cnccc2O1 [Example 96, (S)-3-(3-(((R)-4-Ethyl-1,1-dioxido-3,4-dihydro-2H-pyrido[4,3-b][1,4,5]oxathiazepin-2-yl)methyl)-4-methylphenyl)-3-(1-ethyl-4-methyl-1H-benzo[d][1,2,3]triazol-5-yl)-2,2-dimethyl-N-(pyrimidin-5-yl)propanamide] | 1 to 10 nM
CC[C@@H]1CN(Cc2cc([C@@H](c3ccc4c(nnn4CC)c3C)C(C)(C)C(=O)Nc3cncnc3)ccc2C)S(=O)(=O)c2ccc(Br)cc2O1 [Example 97, (S)-3-(3-(((R)-7-Bromo-4-ethyl-1,1-dioxido-3,4-dihydro-2H-benzo[b][1,4,5]oxathi-azepin-2-yl)methyl)-4-methylphenyl)-3-(1-ethyl-4-methyl-1H-benzo[d][1,2,3]triazol-5-yl)-2,2-dimethyl-N-(pyrimidin-5-yl)propanamide] | 1 to 10 nM
CC[C@@H]1CN(Cc2cc([C@@H](c3ccc4c(nnn4CC)c3C)C(C)(C)C(=O)Nc3cncnc3)ccc2C)S(=O)(=O)c2cc(Br)ccc2O1 [Example 98, (S)-3-(3-(((R)-8-Bromo-4-ethyl-1,1-dioxido-3,4-dihydro-2H-benzo[b][1,4,5]oxathi-azepin-2-yl)methyl)-4-methylphenyl)-3-(1-ethyl-4-methyl-1H-benzo[d][1,2,3]triazol-5-yl)-2,2-dimethyl-N-(pyrimidin-5-yl)propanamide] | 1 to 10 nM
CC[C@@H]1CN(Cc2cc([C@@H](c3ccc4c(nnn4CC)c3C)C(C)(C)NC(N)=O)ccc2C)S(=O)(=O)c2ccccc2O1 [Example 99, 1-((S)-1-(3-(((R)-4-ethyl-1,1-dioxido-3,4-dihydro-2H-benzo[b][1,4,5]oxathiazepin-2-yl)methyl)-4-methylphenyl)-1-(1-ethyl-4-methyl-1H-benzo[d][1,2,3]triazol-5-yl)-2-methylpropan-2-yl)urea] | 100 to 1000 nM
CC[C@@H]1CN(Cc2cc([C@@H](c3ccc4c(nnn4C)c3C)C(C)(C)C(=O)NC3CCOC3)ccc2C)Cc2cnccc2O1 (stereo partly drawn) [Example 100, (3S)-3-(1,4-Dimethyl-1H-benzo[d][1,2,3]triazol-5-yl)-3-(3-(((R)-2-ethyl-2,3-dihydropyrido[3,44][1,4]oxazepin-4(5H)-yl)methyl)-4-methylphenyl)-2,2-dimethyl-N-(tetrahydrofuran-3-yl)propanamide] | 100 to 1000 nM
CC[C@@H]1CN(Cc2cc([C@@H](c3ccc4c(nnn4C)c3C)C(C)(C)C(=O)NC3CCS(=O)(=O)C3)ccc2C)Cc2cnccc2O1 (stereo partly drawn) [Example 101, (3S)-3-(1,4-Dimethyl-1H-benzo[d][1,2,3]triazol-5-yl)-N-(1,1-dioxidotetrahydrothio-phen-3-yl)-3-(3-(((R)-2-ethyl-2,3-dihydropyrido[3,4-f][1,4]oxazepin-4(5H)-yl)methyl)-4-methylphenyl)-2,2-dimethylpropanamide] | 10 to 100 nM
CC[C@@H]1CN(Cc2cc([C@@H](c3ccc4c(nnn4CC)c3C)C(C)(C)C(=O)NCCNC)ccc2C)S(=O)(=O)c2cccnc2O1 [Example 102, (S)-3-(3-(((R)-4-Ethyl-1,1-dioxido-3,4-dihydro-2H-pyrido[2,3-b][1,4,5]oxathiazepin-2-yl)methyl)-4-methylphenyl)-3-(1-ethyl-4-methyl-1H-benzo[d][1,2,3]triazol-5-yl)-2,2-dimethyl-N-(2-(methylamino)ethyl) propanamide] | 10 to 100 nM
CC[C@H]1Cc2ncccc2S(=O)(=O)N(Cc2cc([C@H](CC(=O)Nc3cccnc3)c3ccc4c(nnn4CC)c3C)ccc2C)C1 [Example 103, (S)-3-(3-(((S)-4-Ethyl-1,1-dioxido-4,5-dihydropyrido[2,3-f][1,2]thiazepin-2(3H)-yl)methyl)-4-methylphenyl)-3-(1-ethyl-4-methyl-1H-benzo[d][1,2,3]triazol-5-yl)-N-(pyridin-3-yl)propanamide] | 10 to 100 nM
